Assay results reported in ChEMBL document CHEMBL1123900, “Thienothiopyran-2-sulfonamides: a novel class of water-soluble carbonic anhydrase inhibitors” (J Med Chem, 1987).
In brackets after ≈: the same amount, converted by molar mass.

Legend:
Carbonic anhydrase 2 [1] = target: T1, Carbonic anhydrase 2 (Homo sapiens, UniProt P00918)
Description: In vitro inhibition against purified human erythrocyte carbonic anhydrase II was determined (acetozolamide used as control.)

[2] = Solubility (pH 7.4 buffer ar 25 degree C); assay type: physicochemical; conditions: read-out: S
[3] = pKa value in 30% EtOH-H20; assay type: physicochemical; conditions: 30% EtOH-H2O
Carbonic anhydrase 2 [4] = target: T1, Carbonic anhydrase 2; remark: listed apart in the source
Description: In vitro binding to human erythrocyte Carbonic anhydrase II was determined by fluorescence competition assay employing the fluorescent CA inhibitor dansylamide

[5] = Partition coefficient determined in 1-octanol buffer pH 7.4; assay type: physicochemical; conditions: octanol/water
Carbonic anhydrase 2 [6] = target: T1, Carbonic anhydrase 2; remark: listed apart in the source
Description: In vitro binding to human erythrocyte carbonic anhydrase was determined by fluorescence competition assay employing the fluorescent CA inhibitor dansylamide

[7] = Total solubility measured on pH 7.4 buffer at 25 degree C; assay type: ADME; conditions: read-out: S

Row | SMILES | solubility [2] [µg/mL] | pKa [3] | Partition coefficient [5] | IC50 (Carbonic anhydrase 2 [1]) [nM] | Ki (Carbonic anhydrase 2 [4]) [nM] | Ki (Carbonic anhydrase 2 [6]) [nM] | solubility [7] [µg/mL]
1 | NS(=O)(=O)c1cc2c(s1)SCCC2=O | 70 (≈ 0.281 mM) | 8.6 |  | 8.5 | 3.63 |  | 
2 | NS(=O)(=O)c1cc2c(s1)C(O)CCS2 (configuration not stated) | 1400 (≈ 5.57 mM) | 9 | 3 | 23 | 14.2 |  | 
3 | NS(=O)(=O)c1cc2c(s1)CC(O)CS2(=O)=O (configuration not stated) | 7300 (≈ 25.8 mM) | 8.52 | 0.2 | 40 |  | 18.2 | 
4 | NS(=O)(=O)c1cc2c(s1)[S+]([O-])CCC2O (configuration not stated) | 12000 (≈ 44.9 mM) | 8.68 |  | 100 |  | 104 | 
5 | NS(=O)(=O)c1cc2c(s1)C(=O)CCS2 |  | 8.45 |  | 3.5 | 1.15 |  | 80 (≈ 0.321 mM)
6 | NS(=O)(=O)c1cc2c(s1)SCCC2O (configuration not stated) | 640 (≈ 2.55 mM) | 9.4 |  | 30 | 28 |  | 
7 | CCOc1ccc2nc(S(N)(=O)=O)sc2c1 [ETHOXZOLAMIDE] | 24 (≈ 0.0929 mM) |  |  |  |  |  | 
8 | NS(=O)(=O)c1cc2c(s1)C(O)CC[S+]2[O-] (configuration not stated) | 7200 (≈ 26.9 mM) | 8.82 |  | 250 |  | 309 | 

The next lines start with results.

Row | solubility [2] [µg/mL] | pKa [3] | Partition coefficient [5] | SMILES | IC50 (Carbonic anhydrase 2 [1]) [nM] | Ki (Carbonic anhydrase 2 [4]) [nM] | Ki (Carbonic anhydrase 2 [6]) [nM] | solubility [7] [µg/mL]
9 | 15000 (≈ 52.9 mM) | 8.34 |  | NS(=O)(=O)c1cc2c(s1)C(O)CCS2(=O)=O (configuration not stated) | 40 | 30.5 |  | 
10 | 6400 (≈ 22.6 mM) | 8.3 | 0.42 | NS(=O)(=O)c1cc2c(s1)S(=O)(=O)CC[C@@H]2O |  |  |  | 
11 | 58 (≈ 0.184 mM) |  |  | CC(C)(C)C(=O)Oc1ccc2nc(S(N)(=O)=O)sc2c1 |  |  |  | 
12 | 8200 (≈ 28.9 mM) | 8.6 |  | NS(=O)(=O)c1cc2c(s1)S(=O)(=O)CC(O)C2 (configuration not stated) | 10 |  | 7.11 | 
13 | 560 (≈ 2.09 mM) | 8.35 |  | NS(=O)(=O)c1cc2c(s1)S(=O)(=O)CCC2 | 4.5 |  | 3.3 | 
14 | 6300 (≈ 22.2 mM) | 8.35 | 0.42 | NS(=O)(=O)c1cc2c(s1)S(=O)(=O)CC[C@H]2O |  |  |  | 
15 | 270 (≈ 0.96 mM) | 7.92 | 0.92 | NS(=O)(=O)c1cc2c(s1)S(=O)(=O)CCC2=O | 5 |  |  | 
16 | 60 (≈ 0.213 mM) | 7.32 | 0.63 | NS(=O)(=O)c1cc2c(s1)C(=O)CCS2(=O)=O | 22 | 14.1 |  | 
17 | 12500 (≈ 44.1 mM) | 8.35 | 0.45 | NS(=O)(=O)c1cc2c(s1)S(=O)(=O)CCC2O (configuration not stated) |  |  |  | 
